For data set [1], the system named is HT-29 cells. As to the kind of experiment: Apoptosis assay by annexin-V/PI double staining, HT-29. The conditions noted are these: HT-29, 24 h, compound at IC50 (1i 5.90 µM); control 8.62%. It is filed as cell-based, human. As to the method:
Compounds were added to the cells and further incubated for 24 h. After treatment, monolayer and supernatant cells were harvested, washed with PBS and centrifuged (monolayer at 1200 rpm for 10 min, supernatant at 3500 rpm for 10 min). Then, cells were re-suspended in binding buffer and stained with 2 µL of Annexin-V and […] of PI (ANNEXIN-V—FITC Apoptosis Detection Kit, Immunostep) in the dark for 10 min at room temperature. Cells were analysed by BD Accuri C6 Flow Cytometry (Becton–Dickinson). Etoposide (Calbiochem) was used as a reference drug. Experiments were done in triplicates.

For data set [2], the system named is HT-29 cells. Briefly: Colony forming assay, HT-29.
Data set [3] relates to 253J B-V and 253J B-V cisplatin-resistant cells.
The next data set relates to SH-SY5Y cells. Briefly: Cytoprotection against rotenone/oligomycin A, co-incubation, MTT. Format: cell-based, human. To be noted: co-incubation with rotenone/oligomycin A, 0.001 µM. The protocol:
In the co-incubation assay, compounds and mixture of R/O were incubated together for 24 h. […] It turned out that none of the compounds (apart from 1i at the concentration of 0.001 µM and cytoprotection of 2.99%) had cytoprotective properties in the whole range of concentrations (Fig. 17). Compounds were not able to capture free radicals; therefore they cannot be classified as free-radical scavengers.

The test system of a further data set is A549 cells. As to the kind of experiment: Cell cycle analysis (PI, flow cytometry), A549. It is filed as cell-based, human. To be noted: A549, 24 h, compound at 1/2IC50 (1i 7.44 µM). As to the method:
Then, compounds were added into the wells and cells were further incubated for 24 h. After incubation, monolayer and supernatant cells were harvested and washed in PBS. Then, cells were centrifuged (monolayer—1200 rpm for 10 min, supernatant 3500 rpm for 10 min) and fixed in cold 70% ethanol. Pellets were kept at 4 °C for at least 2 h. Prior to analysis, cells were centrifuged and re-suspended in RNAsi (type 1-A; Sigma Aldrich)—PBS working solution (200 µg/mL). Samples were incubated at 37 °C for 10 min. At the end, 3 µL of 2 mg/mL propidium iodide (PI) (Sigma Aldrich) solution was added to each sample. Samples were kept in the dark prior to analysis. Analysis was performed on BD Accuri C6 Flow Cytometry (Becton–Dickinson). Etoposide (Calbiochem) was used as a reference drug. Experiments were done in triplicates.
On the technique in general: In flow cytometry, cells or beads pass a laser one at a time.

We go through 3 compounds from PMC6745035, “Novel tetrahydroacridine derivatives with iodobenzoic moieties induce G0/G1 cell cycle arrest and apoptosis in A549 non-small lung cancer and HT-29 colorectal cancer cells” (Molecular and Cellular Biochemistry, 2019).

With `O=C(NCCCCNc1c2c(nc3ccccc13)CCCC2)c1ccccc1I` [Compound 1c], in the data set on HT-29 cells [1], the Total apoptotic cells worked out at 12.96%. Moreover, the “Number of colonies expressed as percent of control number” value stood at 10.06% with HT-29 cells [2] (compound at 1/2IC50), 0% with HT-29 cells [2] (compound at 2xIC50) and 4.38% with HT-29 cells [2] (compound at IC50). Further, in data set [3], the “Cytotoxic effect on cisplatin-resistant versus non-resistant 253J B-V cells (in words)” value is recorded as “resistant cells were more sensitive”.

Regarding `O=C(NCCCCNc1c2c(nc3ccccc13)CCCC2)c1ccc(I)cc1` [Compound 1i], the Total apoptotic cells with HT-29 cells [1] is 11.80%. Also, in the data set on SH-SY5Y cells, the Cytoprotection is given as 2.99%. In the data set on A549 cells, the “Cells in G2/M phase” value amounted to 11.31% and the “Cells in S phase” value is recorded as 12.76%. Also, the “Cells in G0/G1 phase” value in the data set on A549 cells (control 51.74%) turned out to be 75.93%.

`O=C(NCCCNc1c2c(nc3ccccc13)CCCC2)c1ccccc1I` [Compound 1b]: in data set [3], the “Cytotoxic effect on cisplatin-resistant versus non-resistant 253J B-V cells (in words)” value is recorded as “resistant cells were more sensitive”.
